Assay results as given in patent US10829520B2, “Beta-hairpin peptidomimetics” (POLYPHOR AG, priority 2015, dated 2020).
Where a SMILES comes first, the peptide text is derived from it. Bridges are numbered along the chain shown (N, C = ends). [ ]: non-standard residue; d: D form. Tle = CC(C)(C)[C@H](N)C(=O)O; Nle = CCCC[C@H](N)C(=O)O; Orn = NCCC[C@H](N)C(=O)O; Dab = NCC[C@H](N)C(=O)O; Dap = NC[C@H](N)C(=O)O; Aib = CC(C)(N)C(=O)O

How the values were obtained:
Type in all cases: cell-based
[1] = tested on: Klebsiella pneumoniae 968733; settings: 968733
[2] = tested on: Pseudomonas aeruginosa ATCC 27853; settings: ATCC 27853
Procedure, shortened: (§1)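 Inocula standardised to a 0.5 McFarland reference and diluted to about 10^6 CFU/mL in MH-II broth are incubated with two-fold peptide series containing 0.002% polysorbate 80. No visible growth after 18-20 hours at 35° C defines the MIC, in μg/mL.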

[3] = tested on: Klebsiella pneumoniae SSI #3010; settings: SSI #3010
Procedure, shortened: as §1

[4] = tested on: Escherichia coli ATCC 25922; settings: ATCC 25922
Procedure, shortened: as §1

[5] = tested on: Acinetobacter baumannii DSM 30008; settings: DSM 30008
Procedure, shortened: as §1

[6] = tested on: Acinetobacter baumannii 872842; settings: 872842
Escherichia coli 926415 = settings: 926415
[7] = tested on: human red blood cells (hRBC); experiment: Hemolysis of human red blood cells; settings: red cells of human, 1 h, 100 μg/mL
Procedure, shortened: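 Peptides at 100 μg/mL were incubated with PBS-washed fresh human erythrocytes (20% v/v, ~0.9×10^9 cells/mL final) for 1 h at 37° C. with shaking. Supernatant OD540 was read after 8-fold dilution; percent hemolysis was expressed relative to the 2.5% Triton X-100 full-lysis control, with PBS/0.001% acetic acid as 0%.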

| SMILES | Klebsiella pneumoniae 968733 MIC [1] | Pseudomonas aeruginosa ATCC 27853 MIC [2] | Klebsiella pneumoniae SSI #3010 MIC [3] | Escherichia coli ATCC 25922 MIC [4] | Acinetobacter baumannii DSM 30008 MIC [5] | Acinetobacter baumannii 872842 MIC [6] | Escherichia coli 926415 MIC (Escherichia coli 926415) | Hemolysis at 100 μg/mL [7] |
| --- | --- | --- | --- | --- | --- | --- | --- | --- |
| CCCC[C@@H]1NC(=O)[C@@H]2CCCN2C(=O)[C@H]2CCCN2C(=O)[C@H](CO)NC(=O)[C@H](C)NC(=O)[C@H](C(C)(C)C)NC(=O)[C@@H](NC(=O)[C@H](Cc2c[nH]c3ccccc23)NC(=O)[C@H](C)NC(C)=O)CSSC[C@@H](C(=O)N[C@@H](CCN)C(=O)N[C@H](C(=O)N[C@@H](CCN)C(=O)N[C@H]2CCNC(=O)[C@H]([C@@H](C)O)NC(=O)[C@H](CCN)NC(=O)[C@H](CCN)NC(=O)[C@H](CC(C)C)NC(=O)[C@@H](Cc3ccccc3)NC(=O)[C@H](CCN)NC2=O)[C@@H](C)O)NC(=O)[C@H](Cc2ccc(O)cc2)NC(=O)[C@H](CO)NC1=O [Ex. 41] (Ac-AWC[Tle]AS[dP]P[Nle]SYC[Dab]T[Dab][Dab][Dab][dF]L[Dab][Dab]T; disulfide 3-12; lactam 16-C) | 1 µg/mL | 0.5 µg/mL | 0.25 µg/mL | 2 µg/mL | 0.5 µg/mL | 0.5 µg/mL | 0.5 µg/mL | <1% |
| CCCC[C@@H]1NC(=O)[C@@H]2CCCN2C(=O)[C@H]2CCCN2C(=O)[C@H](CO)NC(=O)[C@H](C)NC(=O)[C@H](C(C)(C)C)NC(=O)[C@@H](NC(=O)[C@H](Cc2c[nH]c3ccccc23)NC(=O)[C@@H](N)CCN)CSSC[C@@H](C(=O)N[C@@H](CCN)C(=O)N[C@H](C(=O)N[C@@H](CCN)C(=O)N[C@H]2CCNC(=O)[C@H]([C@@H](C)O)NC(=O)[C@H](CCN)NC(=O)[C@H](CCN)NC(=O)[C@H](CC(C)C)NC(=O)[C@@H](Cc3ccccc3)NC(=O)[C@H](CCN)NC2=O)[C@@H](C)O)NC(=O)[C@H](Cc2ccc(O)cc2)NC(=O)[C@H](CO)NC1=O [Ex. 42] (H-[Dab]WC[Tle]AS[dP]P[Nle]SYC[Dab]T[Dab][Dab][Dab][dF]L[Dab][Dab]T; disulfide 3-12; lactam 16-C) | 2 µg/mL | 0.25 µg/mL | 0.25 µg/mL | 0.125 µg/mL | 0.25 µg/mL | 0.25 µg/mL | 0.25 µg/mL | <1% |
| CCCC[C@@H]1NC(=O)[C@@H]2CCCN2C(=O)[C@H]2CCCN2C(=O)[C@H](CO)NC(=O)[C@H](C)NC(=O)[C@H](C(C)(C)C)NC(=O)[C@@H](NC(=O)[C@H](Cc2c[nH]c3ccccc23)NC(=O)[C@@H](N)[C@@H](C)O)CSSC[C@@H](C(=O)N[C@@H](CCN)C(=O)N[C@H](C(=O)N[C@@H](CCN)C(=O)N[C@H]2CCNC(=O)[C@H]([C@@H](C)O)NC(=O)[C@H](CCN)NC(=O)[C@H](CCN)NC(=O)[C@H](CC(C)C)NC(=O)[C@@H](Cc3ccccc3)NC(=O)[C@H](CCN)NC2=O)[C@@H](C)O)NC(=O)[C@H](Cc2ccc(O)cc2)NC(=O)[C@H](CO)NC1=O [Ex. 43] (H-TWC[Tle]AS[dP]P[Nle]SYC[Dab]T[Dab][Dab][Dab][dF]L[Dab][Dab]T; disulfide 3-12; lactam 16-C) | 0.5 µg/mL | 0.5 µg/mL | 0.25 µg/mL | 0.125 µg/mL | 0.5 µg/mL | 1.5 µg/mL | 1.5 µg/mL | 1% |
| CCCC[C@@H]1NC(=O)[C@@H]2CCCN2C(=O)[C@H]2CCCN2C(=O)[C@H](CO)NC(=O)[C@H](C)NC(=O)[C@H](C(C)(C)C)NC(=O)[C@@H](NC(=O)[C@H](Cc2c[nH]c3ccccc23)NC(=O)C(C)(C)N)CSSC[C@@H](C(=O)N[C@@H](CCN)C(=O)N[C@H](C(=O)N[C@@H](CCN)C(=O)N[C@H]2CCNC(=O)[C@H]([C@@H](C)O)NC(=O)[C@H](CCN)NC(=O)[C@H](CCN)NC(=O)[C@H](CC(C)C)NC(=O)[C@@H](Cc3ccccc3)NC(=O)[C@H](CCN)NC2=O)[C@@H](C)O)NC(=O)[C@H](Cc2ccc(O)cc2)NC(=O)[C@H](CO)NC1=O [Ex. 44] (H-[Aib]WC[Tle]AS[dP]P[Nle]SYC[Dab]T[Dab][Dab][Dab][dF]L[Dab][Dab]T; disulfide 3-12; lactam 16-C) | 2 µg/mL | 0.25 µg/mL | 0.25 µg/mL | 0.125 µg/mL | 0.125 µg/mL | 0.5 µg/mL | 0.25 µg/mL | <1% |
| CCCC[C@@H]1NC(=O)[C@@H]2CCCN2C(=O)[C@H]2CCCN2C(=O)[C@H](CO)NC(=O)[C@H](C)NC(=O)[C@H](C(C)(C)C)NC(=O)[C@@H](NC(=O)[C@@H](N)Cc2c[nH]c3ccccc23)CSSC[C@@H](C(=O)N[C@@H](CCCN)C(=O)N[C@@H](CCN)C(=O)N[C@H]2CCNC(=O)[C@H]([C@@H](C)O)NC(=O)[C@H](CCN)NC(=O)[C@H](CCN)NC(=O)[C@H](CC(C)C)NC(=O)[C@@H](Cc3ccccc3)NC(=O)[C@H](CCN)NC2=O)NC(=O)[C@H](Cc2ccc(O)cc2)NC(=O)[C@H](CO)NC1=O [Ex. 45] (H-WC[Tle]AS[dP]P[Nle]SYC[Orn][Dab][Dab][Dab][dF]L[Dab][Dab]T; disulfide 2-11; lactam 14-C) | 0.25 µg/mL | 0.5 µg/mL | 0.125 µg/mL | 0.125 µg/mL | 0.125 µg/mL | 0.25 µg/mL | 0.25 µg/mL | 1% |
| CCCC[C@@H]1NC(=O)[C@@H]2CCCN2C(=O)[C@H]2CCCN2C(=O)[C@H](CO)NC(=O)[C@H](C)NC(=O)[C@H](C(C)(C)C)NC(=O)[C@@H](NC(=O)[C@H](Cc2c[nH]c3ccccc23)NC(C)=O)CSSC[C@@H](C(=O)N[C@@H](CCCN)C(=O)N[C@@H](CCN)C(=O)N[C@H]2CCNC(=O)[C@H]([C@@H](C)O)NC(=O)[C@H](CCN)NC(=O)[C@H](CCN)NC(=O)[C@H](CC(C)C)NC(=O)[C@@H](Cc3ccccc3)NC(=O)[C@H](CCN)NC2=O)NC(=O)[C@H](Cc2ccc(O)cc2)NC(=O)[C@H](CN)NC1=O [Ex. 46] (Ac-WC[Tle]AS[dP]P[Nle][Dap]YC[Orn][Dab][Dab][Dab][dF]L[Dab][Dab]T; disulfide 2-11; lactam 14-C) | 2 µg/mL | 2 µg/mL | 0.25 µg/mL | 0.125 µg/mL | 0.25 µg/mL | 0.5 µg/mL | 0.5 µg/mL | <1% |
| CCCC[C@@H]1NC(=O)[C@@H]2CCCN2C(=O)[C@H]2CCCN2C(=O)[C@H](CO)NC(=O)[C@H]([C@@H](C)O)NC(=O)[C@H](C(C)(C)C)NC(=O)[C@@H](NC(=O)[C@H](Cc2c[nH]c3ccccc23)NC(C)=O)CSSC[C@@H](C(=O)N[C@@H](CCCN)C(=O)N[C@@H](CCN)C(=O)N[C@H]2CCNC(=O)[C@H]([C@@H](C)O)NC(=O)[C@H](CCN)NC(=O)[C@H](CCN)NC(=O)[C@H](CC(C)C)NC(=O)[C@@H](Cc3ccccc3)NC(=O)[C@H](CCN)NC2=O)NC(=O)[C@H](Cc2ccc(O)cc2)NC(=O)[C@H](CO)NC1=O [Ex. 47] (Ac-WC[Tle]TS[dP]P[Nle]SYC[Orn][Dab][Dab][Dab][dF]L[Dab][Dab]T; disulfide 2-11; lactam 14-C) | 1 µg/mL | 0.5 µg/mL | 0.5 µg/mL | 0.25 µg/mL | 0.25 µg/mL | 0.5 µg/mL | 0.5 µg/mL | 1% |
| CCCC[C@@H]1NC(=O)[C@@H]2CCCN2C(=O)[C@H]2CCCN2C(=O)[C@H](CO)NC(=O)[C@H](C)NC(=O)[C@H](C(C)(C)C)NC(=O)[C@@H](NC(=O)[C@H](Cc2c[nH]c3ccccc23)NC(C)=O)CSSC[C@@H](C(=O)N[C@@H](CCCN)C(=O)N[C@@H](CCN)C(=O)N[C@H]2CCNC(=O)[C@H]([C@@H](C)O)NC(=O)[C@H](CCN)NC(=O)[C@H](CCN)NC(=O)[C@H](CC(C)C)NC(=O)[C@@H](Cc3ccccc3)NC(=O)[C@H](CCN)NC2=O)NC(=O)[C@H](Cc2ccc(O)cc2)NC(=O)[C@H](CO)NC1=O [Ex. 48] (Ac-WC[Tle]AS[dP]P[Nle]SYC[Orn][Dab][Dab][Dab][dF]L[Dab][Dab]T; disulfide 2-11; lactam 14-C) | 1 µg/mL | 1 µg/mL | 0.25 µg/mL | 0.125 µg/mL | 0.5 µg/mL | 0.5 µg/mL | 0.25 µg/mL | 2% |
